Data from ChEMBL document CHEMBL5034034 (J Med Chem, 2021).
Activity calls are given as the source filed them. No cut-off for these calls is given here.

Assays:
[1] = Volume of distribution at steady state in cynomolgus monkey at 0.2 mg/kg, iv measured upto 72 hrs by LC-MS/MS analysis; assay type: ADME, organism-based, Macaca fascicularis; conditions: in vivo, read-out: Vdss
[2] = AUC extrapolated in cynomolgus monkey at 1 mg/kg, po measured upto 72 hrs by LC-MS/MS analysis; assay type: ADME, organism-based, Macaca fascicularis; conditions: in vivo
[3] = target: T1, Proprotein convertase subtilisin/kexin type 9 (Homo sapiens, UniProt Q8NBP7); test: Inhibition of human PCSK9 using Alexa Fluor […] as substrate incubated for 2 hrs by FRET ultra assay
T1 sequence (Q8NBP7 31-152 limits assumed): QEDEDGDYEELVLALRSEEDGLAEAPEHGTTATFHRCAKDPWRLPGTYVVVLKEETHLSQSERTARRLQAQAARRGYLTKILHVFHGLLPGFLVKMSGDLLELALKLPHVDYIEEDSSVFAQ
T1 sequence (Q8NBP7 153-692 limits assumed): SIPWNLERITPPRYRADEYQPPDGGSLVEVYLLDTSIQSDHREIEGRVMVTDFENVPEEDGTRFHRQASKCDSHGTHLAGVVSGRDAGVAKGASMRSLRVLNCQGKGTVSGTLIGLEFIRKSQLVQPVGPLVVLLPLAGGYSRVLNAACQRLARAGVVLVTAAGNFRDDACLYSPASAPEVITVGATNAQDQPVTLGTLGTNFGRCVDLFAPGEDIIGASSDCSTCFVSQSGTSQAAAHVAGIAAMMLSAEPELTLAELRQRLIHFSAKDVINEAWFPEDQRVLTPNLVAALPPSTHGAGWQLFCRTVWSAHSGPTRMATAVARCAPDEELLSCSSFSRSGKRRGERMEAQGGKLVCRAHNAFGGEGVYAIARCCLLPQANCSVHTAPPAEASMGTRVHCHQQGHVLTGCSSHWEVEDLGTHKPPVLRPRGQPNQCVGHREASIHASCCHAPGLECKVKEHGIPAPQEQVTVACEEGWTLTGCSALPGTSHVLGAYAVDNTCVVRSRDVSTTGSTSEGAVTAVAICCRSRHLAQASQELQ

[4] = Reduction in unbound PCSK9 levels in cynomolgus monkey at 0.2 mg/kg, po after 24 hrs; assay type: functional, Macaca fascicularis; parameters: scale not given: the % may be the effect or the level left
[5] = Clearance in cynomolgus monkey at 0.2 mg/kg, iv measured upto 72 hrs by LC-MS/MS analysis; assay type: ADME, organism-based, Macaca fascicularis; conditions: in vivo
[6] = Oral bioavailability in cynomolgus monkey at 1 mg/kg measured upto 72 hrs by LC-MS/MS analysis; assay type: ADME, organism-based, Macaca fascicularis; conditions: in vivo
Sus scrofa [7] = species: Sus scrofa; test: Stability of the compound assessed as porcine pancreatic elastase-mediated parent compound depletion by measuring parent compound remaining after 1 hr by LC-MS/MS analysis
[8] = Reduction in unbound PCSK9 levels in cynomolgus monkey at 0.2 mg/kg, po after 0.5 to 6 hrs; assay type: functional, Macaca fascicularis; parameters: scale not given: the % may be the effect or the level left; conditions: time 0.5-6 hrs
[9] = Tmax in cynomolgus monkey at 1 mg/kg, po measured upto 72 hrs by LC-MS/MS analysis; assay type: ADME, organism-based, Macaca fascicularis; conditions: in vivo
[10] = AUC(0 to infinity) in cynomolgus monkey at 1 mg/kg, po measured upto 72 hrs by LC-MS/MS analysis; assay type: ADME, organism-based, Macaca fascicularis; parameters: route oral, dose 1 mg/kg, time <=72; conditions: in vivo
[11] = Cmax in cynomolgus monkey at 1 mg/kg, po measured upto 72 hrs by LC-MS/MS analysis; assay type: ADME, organism-based, Macaca fascicularis; parameters: route oral, dose 1 mg/kg, time <=72; conditions: in vivo
[12] = Unbound clearance in cynomolgus monkey at 0.2 mg/kg, iv measured upto 72 hrs by LC-MS/MS analysis; assay type: ADME, organism-based, Macaca fascicularis; conditions: in vivo
[13] = Protein binding in cynomolgus monkey at 0.2 mg/kg, iv measured upto 72 hrs by LC-MS/MS analysis; assay type: ADME, organism-based, Macaca fascicularis; conditions: in vivo, read-out: PB (converted)
Mast cell = test: Induction of rat mast cells degranulation activity at 100 uM incubated for 30 mins; assay type: functional, tissue-based
[14] = Bioavailability in Wistar Han rat at 5 mg/kg, id measured upto 24 hrs by LC-MS/MS analysis; assay type: ADME, organism-based; conditions: in vivo
[15] = AUC(0 to infinity) in cynomolgus monkey at 0.2 mg/kg, iv measured upto 72 hrs by LC-MS/MS analysis; assay type: ADME, organism-based, Macaca fascicularis; parameters: route intravenous, dose 0.2 mg/kg, time <=72; conditions: in vivo
[16] = AUC(0 to infinity) in Wistar Han rat at 5 mg/kg, id measured upto 24 hrs by LC-MS/MS analysis; assay type: ADME, organism-based; parameters: dose 5 mg/kg, time <=24; conditions: in vivo
[17] = target: T1, Proprotein convertase subtilisin/kexin type 9; test: Inhibition of PCSK9 in human plasma assessed as reduction in unbound PCSK9 by target engagement assay; assay type: cell-free
[18] = Half life in cynomolgus monkey at 0.2 mg/kg, iv measured upto 72 hrs by LC-MS/MS analysis; assay type: ADME, organism-based, Macaca fascicularis; conditions: in vivo
Sus scrofa [19] = species: Sus scrofa; test: Stability of the compound assessed as porcine pepsin-mediated parent compound depletion by measuring parent compound remaining after 1 hr by LC-MS/MS analysis
Bos taurus = species: Bos taurus; test: Stability of the compound assessed as bovine pancreas alpha chymotrypsin-mediated parent compound depletion by measuring parent compound remaining after 1 hr by LC-MS/MS analysis
Macaca fascicularis [20] = species: Macaca fascicularis; test: Inhibition of PCSK9 in cynomolgus monkey plasma assessed as reduction in unbound PCSK9 by target engagement assay; assay type: cell-free
[21] = Stability of the compound assessed as bovine pancreatic trypsin-mediated parent compound depletion by measuring parent compound remaining after 1 hr by LC-MS/MS analysis; assay type: ADME, Bos taurus; conditions: cattle, read-out: Stability
[22] = target: T1, Proprotein convertase subtilisin/kexin type 9; test: Inhibition of human PCSK9 using Alexa Fluor […] as substrate incubated for 2 hrs by FRET plus assay
[23] = target: T2, Solute carrier organic anion transporter family member 1B1 (Homo sapiens, UniProt Q9Y6L6); test: Inhibition of OATP1B1 (unknown origin) expressed in HEK293 cells assessed as reduction in OATP 1B1-mediated [3H]-pitavastatin uptake preincubated for 30 mins followed by [3H]-pitavastatin addition and measured after 2 mins by liquid scintillation analysis; assay type: cell-based
T2 sequence (Q9Y6L6 whole entry): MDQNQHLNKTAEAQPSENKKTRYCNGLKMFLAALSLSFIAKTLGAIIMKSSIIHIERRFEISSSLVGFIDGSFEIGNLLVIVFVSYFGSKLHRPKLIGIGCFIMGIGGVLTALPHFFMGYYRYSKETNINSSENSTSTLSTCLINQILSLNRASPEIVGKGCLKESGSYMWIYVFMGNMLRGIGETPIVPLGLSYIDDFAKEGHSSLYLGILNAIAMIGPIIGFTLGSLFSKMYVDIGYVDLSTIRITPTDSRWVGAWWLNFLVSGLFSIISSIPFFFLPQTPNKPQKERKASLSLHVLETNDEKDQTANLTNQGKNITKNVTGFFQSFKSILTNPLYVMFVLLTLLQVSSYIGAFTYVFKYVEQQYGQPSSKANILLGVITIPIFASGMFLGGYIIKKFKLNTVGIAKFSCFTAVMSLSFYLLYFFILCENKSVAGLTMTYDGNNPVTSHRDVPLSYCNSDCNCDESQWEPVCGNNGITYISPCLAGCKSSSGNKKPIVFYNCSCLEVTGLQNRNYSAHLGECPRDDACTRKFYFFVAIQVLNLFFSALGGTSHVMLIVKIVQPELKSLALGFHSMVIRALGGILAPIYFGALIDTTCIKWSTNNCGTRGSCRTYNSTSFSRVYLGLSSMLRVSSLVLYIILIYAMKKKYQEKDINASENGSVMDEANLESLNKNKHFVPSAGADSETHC

[24] = Reduction in LDL-cholesterol levels in cynomolgus monkey at 0.2 mg/kg, iv after 48 hrs; assay type: functional, Macaca fascicularis; parameters: scale not given: the % may be the effect or the level left
Macaca fascicularis [25] = test: Reduction in LDL-cholesterol levels in cynomolgus monkey at 0.2 mg/kg, iv after 4 weeks; assay type: functional, organism-based
[26] = target: T1, Proprotein convertase subtilisin/kexin type 9; test: Inhibition of human PCSK9 using Alexa Fluor […] as substrate incubated for 2 hrs by FRET assay
[27] = Reduction in unbound PCSK9 levels in cynomolgus monkey at 0.2 mg/kg, iv after 24 to 48 hrs; assay type: functional, Macaca fascicularis; parameters: scale not given: the % may be the effect or the level left; conditions: time 24-48 hrs
[28] = Metabolic stability in cynomolgus monkey whole blood assessed as half life measured upto 6 hrs by LC-MS/MS analysis; assay type: ADME, tissue-based, Macaca fascicularis
[29] = Tmax in Wistar Han rat at 5 mg/kg, id measured upto 24 hrs by LC-MS/MS analysis; assay type: ADME, organism-based; conditions: in vivo
[30] = Cmax in Wistar Han rat at 5 mg/kg, id measured upto 24 hrs by LC-MS/MS analysis; assay type: ADME, organism-based; parameters: dose 5 mg/kg, time <=24; conditions: in vivo
[31] = AUC extrapolated in Wistar Han rat at 5 mg/kg, id measured upto 24 hrs by LC-MS/MS analysis; assay type: ADME, organism-based; conditions: in vivo, other

For `COc1ccc(C[C@@H]2NC(=O)[C@H]([C@@H](C)O)NC(=O)[C@@H]3[C@@H]4CCN3C(=O)[C@@H]3Cc5cn(c6ccc(F)cc56)Cc5cn(nn5)-c5cc(cc(c5)CSCCC(=O)N[C@@H](CNC(=O)CCOCCOCC[N+](C)(C)C)C(=O)N[C@H](C)C(=O)N[C@@H](Cc5cccc(c5)C/C=C/CO4)C(=O)N3)CSCCNC(=O)[C@]3(C)CCCN3C2=O)cc1`, the Vd [1] was 0.7 L/kg, the “%AUCextra” value [2] was 43% and the Ki [3] was 0.00239 nM. The Activity [4] was 60%, the clearance [5] was 1.4 mL/min/kg and the bioavailability [6] was 2.9%. For the same molecule, the Stability (Sus scrofa [7]) was 97%, the Activity [8] was 80% and the Tmax [9] was 2 h. It also gave an AUC(0-inf) [10] of 0.216 µM·h, a Cmax [11] of 9.8 nM and a CL free [12] of 5.8 mL/min/kg. For the same molecule, the fraction unbound at 72 h [13] was 0.247, the Activity (Mast cell) was “inactive” and the bioavailability [14] was 2.7%. For the same molecule, the AUC(0-inf) [15] was 1.47 µM·h, the AUC(0-inf) [16] was 0.274 µM·h and the inhibition [17] was “Active”. It also gave a half-life [18] of 7.6 h, a Stability (Sus scrofa [19]) of 97.2% and a Stability (Bos taurus) of 93%. The inhibition (Macaca fascicularis [20]) was “Active”, the remaining at 1 h [21] was 96.8% and the Ki [22] was 0.0114 nM. The EC50 [23] was greater than 22000 nM, the Activity [24] was greater than 50% and the Activity (Macaca fascicularis [25]) was “inactive”. The Ki [26] was greater than 0.129 nM, the Activity [27] was greater than 80% and the half-life [28] was greater than 6 h. For the same molecule, the Tmax [29] was 0.5 h, the Cmax [30] was 92 nM and the “%AUCextra” value [31] was 3%.
